The values below come from patent US9328173B2, “Multifunctional antibodies binding to EGFR and MET” (Eli Lilly and Company, priority 2013, dated 2016).

As usually defined, the viability is a read-out of living cells in per cent, often relative to untreated cells.

Where two headings read alike, the source gives them in different places.

One assay relates to HCC827 cells. The experiment in a line: Restoring HCC827 sensitivity to erlotinib in the presence of HGF. As to conditions: Homo sapiens, HCC827, 72 h, read-out: AVG = average % of cell viability. As for the experimental part:
Briefly, 3×10^3 cells/well in 100 μL culture medium may be plated in 96 well plates and incubated overnight at 37° C., 5% CO2. […] Cell viability may be determined by measuring luminescence.

In the next assay the test system is FaDu cells. In words: Restoring FaDu sensitivity to lapatinib in the presence of HGF or EGF. In kind it is cell-based. Conditions: Homo sapiens, antibodies 50 nM, read-out: % of cell viability; for viability at 0.001 µM: lapatinib 0.001 μM; for viability at 0.003 µM: lapatinib 0.003 μM; for viability at 0.01 µM: lapatinib 0.01 μM; for viability at 0.03 µM: lapatinib 0.03 μM; for viability at 0.1 µM: lapatinib 0.1 μM; for viability at 0.3 µM: lapatinib 0.3 μM; for viability at 1 µM: lapatinib 1 μM; for viability at 3 µM: lapatinib 3 μM; for viability at 10 µM: lapatinib 10 μM. The procedure:
Briefly, 3×10^3 cells/well in 100 μL culture medium may be plated in 96 well plates and incubated overnight at 37° C., 5% CO2. […] At the end of an additional 5 days of cell growth, plates may be equilibrated to room temperature for 30 minutes and 100 μL per well of CellTiter-Glo® reagent (Promega Corp.) may be added. Cell viability can be determined by measuring luminescence.

In the next assay the test system is MKN45 cells. In words: MKN45 apoptosis assay (caspase-3/7 positive cells, […]). Conditions: antibody 100 nM, untreated = 100.00. In kind it is cell-based, human. As for the experimental part:
The gastric cancer cell line MKN45 can be used to assay apoptosis induced by antibodies. Briefly, 3×10^3 cells/well in 80 μL culture medium may be plated in 96 well plates and incubated overnight at 37° C., 5% CO2. CellEvent™ reagent (Life Technologies, Carlsbad, Calif.) may be diluted in cell culture medium and added at 10 μL per well. […] The caspase-3/7 positive cells may be measured in real-time by […]™ Kinetic Imaging System (Essen Bioscience, Ann Arbor, Mich.) with 3 hours intervals at 37° C., 5% CO2 for a total of 120 hours.

For a further assay, the system named is HT-29 cells. In words: Restoring HT-29 sensitivity to PLX4032 in the presence of HGF and EGF. In kind it is cell-based. As to conditions: Homo sapiens, HT-29, 120 h; read-out: AVG = average % of cell viability. The procedure: The colon cancer cell line HT-29 has a B-Raf mutation and is sensitive to the B-Raf inhibitor PLX4032. […] Briefly, 3×10^3 cells/well in 100 μL culture medium may be plated in 96 well plates and incubated overnight at 37° C., 5% CO2. […] At the end of an additional 5 days of cell growth, plates may be equilibrated to room temperature for 30 minutes and 100 μL per well of CellTiter-Glo® reagent (Promega Corp.) may be added. Cell viability can be determined by measuring luminescence.

The next assay has as its system ERK phosphorylation. As to conditions: in vitro ERK phosphorylation assay; cited from earlier work.

For `C#Cc1cccc(Nc2ncnc3cc(OCCOC)c(OCCOC)cc23)c1` [Erlotinib, erlotinib], the viability at 1 µM in the assay with HCC827 cells was found to be 18%.
For `CS(=O)(=O)CCNCc1ccc(-c2ccc3ncnc(Nc4ccc(OCc5cccc(F)c5)c(Cl)c4)c3c2)o1` [lapatinib], in the assay with FaDu cells (E = EGF (50 ng/ml)), the viability at 0.001 µM came out at 109%, the viability at 0.003 µM was 109%, the viability at 0.01 µM was 78.7% and the viability at 0.03 µM came out at 69.4%. Also, in the assay with FaDu cells (E = EGF (50 ng/ml)), the viability at 0.1 µM came to 45.6%, the viability at 0.3 µM amounted to 32.5%, the viability at 1 µM is 26.3% and the viability at 3 µM came out at 19%. In addition, the viability at 10 µM with FaDu cells (E = EGF (50 ng/ml)) was found to be 19.6%. In addition, in the assay on FaDu cells (H = HGF (50 ng/ml)), the viability at 0.001 µM was determined as 99.5%, the viability at 0.003 µM is 101%, the viability at 0.01 µM is 95.8% and the viability at 0.03 µM came out at 68.8%. Also, in the assay on FaDu cells (H = HGF (50 ng/ml)), the viability at 0.1 µM was 45.4%, the viability at 0.3 µM was found to be 32.5%, the viability at 1 µM stood at 26.9% and the viability at 3 µM came out at 18.5%. For the same molecule, the viability at 10 µM in the assay with FaDu cells (H = HGF (50 ng/ml)) turned out to be 17.1%.
“anti-MET Ab: parental anti-MET antibody C8-H241 (human IgG4 subtype), described in WO 2010/059654 [reference compound]”: the “AVG = average % increase of cell apoptosis” value in the assay on MKN45 cells (24 hr) was 100.35%; in the assay on MKN45 cells (48 hr), 222.81%; with MKN45 cells (72 hr) it was 275.40%; in the assay with MKN45 cells (96 hr), 286.63%; with MKN45 cells (120 hr), 353.84%.
In the case of `CCCS(=O)(=O)Nc1ccc(F)c(C(=O)c2c[nH]c3ncc(-c4ccc(Cl)cc4)cc23)c1F` [PLX, PLX4032], in the assay on HT-29 cells, the viability at 0.00032 µM was determined as 101%, the viability at 0.0016 µM was determined as 99.9%, the viability at 0.008 µM stood at 97.6% and the viability at 0.04 µM turned out to be 83.1%. In the assay on HT-29 cells, the viability at 0.2 µM was determined as 56.7% and the viability at 1 µM was 33.7%.

B1: EM1-mAb: bispecific antibody targeting both EGFR and cMET made by controlled Fab Arm Exchange (antibody, chains of the INN, looked up, V domains shown)
VH: QVQLVESGGGVVQPGRSLRLSCAASGFTFSTYGMHWVRQAPGKGLEWVAVIWDDGSYKYYGDSVKGRFTISRDNSKNTLYLQMNSLRAEDTAVYYCARDGITMVRGVMKDYFDYWGQGTLVTVSS
VL: AIQLTQSPSSLSASVGDRVTITCRASQDISSALVWYQQKPGKAPKLLIYDASSLESGVPSRFSGSESGTDFTLTISSLQPEDFATYYCQQFNSYPLTFGGGTKVEIK
VH2: QVQLVQSGAEVKKPGASVKVSCETSGYTFTSYGISWVRQAPGHGLEWMGWISAYNGYTNYAQKLQGRVTMTTDTSTSTAYMELRSLRSDDTAVYYCARDLRGTNYFDYWGQGTLVTVSS
VL2: DIQMTQSPSSVSASVGDRVTITCRASQGISNWLAWFQHKPGKAPKLLIYAASSLLSGVPSRFSGSGSGTDFTLTISSLQPEDFATYYCQQANSFPITFGQGTRLEIK
Turning to B1, the “activity compared to the combination of monovalent control antibodies” value in the assay with ERK phosphorylation was “superior activity”.
